# In US4510140A, “Therapeutically effective ω-(4-(2-pyridyl)-piperazino)-alkanoylanilides” (priority 1981, dated 1985):
# Like-named read-outs stand apart in the source and are kept apart here.
# How the values were obtained:
# [1] = LD50 determined in the mouse (C. S. Weil method); set-up: unit not given here; conditions: in vivo
# Text: Accordingly, the present invention also features pharmaceutical compositions comprising a pharmaceutically effective amount of a compound having the structural formula (I) as above-defined, or a pharmaceutically acceptable salt thereof, in admixture with conventional pharmaceutically acceptable dileunt or carrier. Suitable such carriers and unit dosage amounts will be apparent to those skilled in this art. Compare, for example, Remington's Pharmaceutical Sciences, 4th Edition (1970). The LD50 of the alkanoylanilides according to the invention was determined in the mouse, both in C. S. Weil, following the method describedBiometrics, 8, 249 (1952). The results obtained were as follows, with the designating for the active compounds corresponding to those set forth in the following specific examples: […]
# [2] = system: bronchospasm induced by histamine; assay: Antibronchospastic activity (Konzett and Rossler): inhibition of bronchospasm induced in anaesthetized guinea-pig by histamine; format: in vivo; conditions: Cavia porcellus, iv, 1 min, read-out: ED75 (inhibition of histamine-induced bronchospasm)
# Procedure: The antibronchospastic activity was determined according to the method of Konzett and Rossler [Arch. exp. Path. Pharmakol., 195, 71 (1940)], determining the inhibition of bronchospasm induced in anaesthetized guinea-pig by histamine. For this purpose, the bronchospasms were induced by administering intravenously to the animals 0.5-2.5 μg/Kg of hystamine. Inhibition (ED75) was determined one minute after the injection of the drug under test, and the results obtained are reported in the following Table III: […]
# [3] = system: passive cutaneous anaphylaxis; assay: PCA Test: passive cutaneous anaphylaxis induced in the rat with homologous antibodies (Goose and Blair); inhibition of spot areas; format: in vivo; conditions: read-out: PCA Test - ED50 (inhibition of spot areas)
# Procedure: In order to evaluate the antianaphylactic activity of the subject novel compounds, the method of Goose and Blair was followed, in which passive cutaneous anaphylaxis was induced in the rat with homologous antibodies [Immunology, 16, 749 (1969)]. Female albino rats were immunized intramuscularly with egg albumin and intraperitoneally with Hemophylus pertussis vaccine.
# Twelve days after treatment, the animals were bled and the sera thus obtained were injected intradermally into another group of rats. Twenty-four hours later, the animals were challenged with an i.v. solution of ovoalbumin and Evans blue dye, and sacrificed after 30 minutes. The test drugs were administered by different routes of administration and at different times before the challenge. Inhibition of spot areas (ED50) was determined.
# [4] = anaesthetized guinea-pig, i.v., histamine 0.5-2.5 μg/Kg i.v., one minute after injection of the drug
Compound,LD50 ([1]; ip),"LD50 ([1]; po, os)",ED75 [2] [µmol/kg],"ED50 ([3]; Rattus norvegicus, ip) [µmol/kg]","ED50 ([3]; Rattus norvegicus, po) [µmol/kg]","ED75 [2, 4] [µmol/kg]","ED50 ([3]; po, rat, os) [µmol/kg]","ED50 ([3]; rat, ip) [µmol/kg]"
N#Cc1ccc(NC(=O)CCN2CCN(c3ccccn3)CC2)cc1 [compound 43],0.39,0.62,,,,,,
O=C(CCN1CCN(c2ccccn2)CC1)Nc1ccc(O)c([N+](=O)[O-])c1 [compound 21],2.38,3.74,1.1,270,160,,,
Cc1cccc(C)c1NC(=O)CN1CCN(c2ccccn2)CC1 [compound 1],0.9,,,337,,,,
Nc1cccc(NC(=O)CCN2CCN(c3ccccn3)CC2)c1 [compound 23],0.9,0.85,0.61,,170,,,
CC(=O)c1cccc(NC(=O)CCN2CCN(c3ccccn3)CC2)c1 [compound 40],0.68,1.11,0.2,,73,,,
COc1cccc(N2CCN(CCC(=O)Nc3ccccc3[N+](=O)[O-])CC2)n1 [compound 34],,> 7.1,,,,,,
O=C(CCN1CCN(c2ccccn2)CC1)Nc1cccc(C(F)(F)F)c1 [compound 37],0.56,1.17,,,,,,
Nc1ccccc1NC(=O)CCN1CCN(c2ccccn2)CC1 [compound 22],3.2,2.08,1.63,,100,,,
COc1cccc(N2CCN(CCC(=O)Nc3ccccc3N)CC2)n1 [compound 38],0.37,0.67,,,44,,,
COc1cccc(N2CCN(CCC(=O)Nc3ccc(N)cc3)CC2)n1 [compound 25],0.53,1.6,0.4,110,55,,,
CC(=O)Nc1ccc(NC(=O)CCN2CCN(c3ccccn3)CC2)cc1 [compound 27],,> 6.81,,,,0.97,92,120
CC(=O)c1ccccc1NC(=O)CCN1CCN(c2ccccn2)CC1 [compound 39],2.3,> 6.91,0.89,,73,,,
O=C(CCN1CCN(c2ccccn2)CC1)Nc1cccc([N+](=O)[O-])c1 [compound 4],0.42,2.07,0.37,56,68,,,
Cc1ccccc1NC(=O)CCN1CCN(c2ccccn2)CC1 [compound 17],1.01,1.58,0.47,,67,,,
COc1ccc(NC(=O)CCN2CCN(c3ccccn3)CC2)cc1 [compound 3],0.71,1.16,0.24,19,,,,
O=C(CCN1CCN(c2ccccn2)CC1)Nc1ccccc1 [compound 16],1.16,1.35,1.93,64,61,,,
O=C(CCN1CCN(c2ccccn2)CC1)Nc1ccc([N+](=O)[O-])cc1 [compound 6],0.47,0.81,0.94,27,,,,
CSc1ccc(NC(=O)CCN2CCN(c3ccccn3)CC2)cc1 [compound 42],,> 8.4,,,,,,
CC1CN(c2ccccn2)CCN1CCC(=O)Nc1ccc(N)cc1 (stereo not shown) [compound 24],1.18,2.97,0.59,,39,,,
CCOC(=O)c1ccc(NC(=O)CCN2CCN(c3ccccn3)CC2)cc1 [compound 41],0.66,0.92,0.17,220,28,,,

Compound,LD50 ([1]; ip),"LD50 ([1]; po, os)",ED75 [2] [µmol/kg],"ED50 ([3]; Rattus norvegicus, ip) [µmol/kg]","ED50 ([3]; Rattus norvegicus, po) [µmol/kg]","ED75 [2, 4] [µmol/kg]","ED50 ([3]; po, rat, os) [µmol/kg]","ED50 ([3]; rat, ip) [µmol/kg]"
CC(O)c1ccc(NC(=O)CCN2CCN(c3ccccn3)CC2)cc1 (stereo not shown) [compound 14],3.25,5.97,0.48,32,106,,,
O=C(CCN1CCN(c2ccccn2)CC1)Nc1ccc(Cl)cc1 [compound 35],0.62,0.96,2.27,,39,,,
O=C(CCN1CCN(c2ccccn2)CC1)Nc1ccccc1[N+](=O)[O-] [compound 29],2.08,3.7,0.58,,,,,
O=C(CCN1CCN(c2ccccn2)CC1)Nc1ccc(NC(=O)Nc2ccccc2)cc1 [compound 8],> 2.25,> 6.7,,,,,,
O=C(CCN1CCN(c2ccccn2)CC1)Nc1cc([N+](=O)[O-])cc([N+](=O)[O-])c1 [compound 32],,1.57,2.4,,,,,
O=C(CCN1CCN(c2ccccn2)CC1)Nc1ccccc1Cl [compound 33],1.29,2.64,1.12,151,47,,,
CCC(=O)Nc1ccc(NC(=O)CCN2CCN(c3ccccn3)CC2)cc1 [compound 11],1.05,1.53,0.23,160,,,,
Cc1cc(C)c(C)c(NC(=O)CN2CCN(c3ccccn3)CC2)c1C [compound 2],0.65,,,212,,,,
Nc1ccc(NC(=O)CCN2CCN(c3ccccn3)CC2)cc1 [compound 7],1.11,1.29,0.02,27,74,,,
O=C(CCN1CCN(c2ccccn2)CC1)Nc1c(Cl)cccc1Cl [compound 36],0.8,1.24,0.4,,29,,,
CC1CN(c2ccccn2)CCN1CCC(=O)Nc1ccc([N+](=O)[O-])cc1 (stereo not shown) [compound 30],0.42,1.2,1.75,,230,,,
CC(=O)c1ccc(NC(=O)CCN2CCN(c3ccccn3)CC2)cc1 [compound 13],0.48,1.5,0.02,104,,,,
CCOc1ccc(NC(=O)CCN2CCN(c3ccccn3)CC2)cc1 [compound 19],0.69,0.92,0.14,,54,,,
O=C(CCN1CCN(c2ccccn2)CC1)Nc1ccc(O)cc1 [compound 20],> 2.5,5.2,,,,0.49,170,120
Cc1cccc(C)c1NC(=O)CCN1CCN(c2ccccn2)CC1 [compound 18],0.8,,1.57,81,13,,,
CNC(=O)Nc1ccc(NC(=O)CCN2CCN(c3ccccn3)CC2)cc1 [compound 28],> 2.15,> 6.5,,,,0.29,73,
CCOC(=O)C(=O)Nc1ccc(NC(=O)CCN2CCN(c3ccccn3)CC2)cc1 [compound 12],> 2.35,> 7.05,,,,0.23,180,130
COc1cccc(N2CCN(CCC(=O)Nc3ccc([N+](=O)[O-])cc3)CC2)n1 [compound 31],,4.39,,,130,,,
CC(=O)c1ccc(OCc2ccccc2)c(NC(=O)CCN2CCN(c3ccccn3)CC2)c1 [compound 5],0.91,1.21,3.89,89,,,,
Cc1cc(C)c(C)c(NC(=O)CCN2CCN(c3ccccn3)CC2)c1C [compound 15],0.57,,1.56,19,26,,,
